Columns and labels:
Type in all cases: in vivo
Details in all cases: 250 g/h, evaluated after 13 days
Setaria faberi (SETFA) [1] = assay: Post-emergence herbicidal glasshouse test, percentage damage
Method in brief: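 Wheat, barley and Setaria faberi were sprayed post-emergence after 8 days' growth (24/16 °C, 14 h light, 65% humidity) with compound in acetone/water (50:50) containing 0.5% Tween 20, at the indicated rates. On wheat, compounds were also applied with cloquintocet-mexyl at 50 g/ha. Damage was scored after 13 days on a five-point scale (5=80-100% to 1=0-19%).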

Lolium perenne (LOLPE) [2] = assay: as above
Method in brief: (§1)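 Potted plants in standard soil; pre-emergence spray after 1 d of cultivation, post-emergence after 8 d. Dose 250 g/h from an acetone/water (50:50), 0.5% Tween 20 formulation. % damage at 13 d, scored 1–5.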

[3] = system: Alopecurus myosuroides (ALOMY); assay: as above
Method in brief: as §1

[4] = system: Echinochloa crus-galli (ECHCG); assay: as above
Method in brief: as §1

Avena fatua (AVEFA) [5] = assay: as above
Method in brief: as §1

Lolium perenne (LOLPE) [6] = assay: Pre-emergence herbicidal glasshouse test, percentage damage
Method in brief: as §1

[7] = system: Alopecurus myosuroides (ALOMY); assay: as above
Method in brief: as §1

[8] = system: Echinochloa crus-galli (ECHCG); assay: as above
Method in brief: as §1

Setaria faberi (SETFA) [9] = assay: as above
Method in brief: as §1

Avena fatua (AVEFA) [10] = assay: as above
Method in brief: as §1

Structure (SMILES)	SETFA POST percentage damage (five point scale) (Setaria faberi (SETFA) [1])	LOLPE POST percentage damage (five point scale) (Lolium perenne (LOLPE) [2])	ALOMY POST percentage damage (five point scale) [3]	ECHCG POST percentage damage (five point scale) [4]	AVEFA POST percentage damage (five point scale) (Avena fatua (AVEFA) [5])	LOLPE PRE percentage damage (five point scale) (Lolium perenne (LOLPE) [6])	ALOMY PRE percentage damage (five point scale) [7]	ECHCG PRE percentage damage (five point scale) [8]	SETFA PRE percentage damage (five point scale) (Setaria faberi (SETFA) [9])	AVEFA PRE percentage damage (five point scale) (Avena fatua (AVEFA) [10])
CC#Cc1cc(C)c(C2C(=O)CC3(CCN(C(=O)c4cccc(C(F)(F)F)n4)CC3)CC2=O)c(C)c1 [Compound A91]	5 (5=80-100%)	5 (5=80-100%)	5 (5=80-100%)	5 (5=80-100%)	5 (5=80-100%)	5 (5=80-100%)	5 (5=80-100%)	5 (5=80-100%)	5 (5=80-100%)	5 (5=80-100%)
CC#Cc1cc(C)c(C2C(=O)CC3(CCN(C(=O)c4ccccc4F)CC3)CC2=O)c(C)c1 [Compound A84]	5 (5=80-100%)	5 (5=80-100%)	5 (5=80-100%)	5 (5=80-100%)	5 (5=80-100%)	5 (5=80-100%)	5 (5=80-100%)	5 (5=80-100%)	5 (5=80-100%)	4 (4=60-79%)
CC#Cc1cc(C)c(C2C(=O)CC3(CCN([S+]([O-])C(C)(C)C)CC3)CC2=O)c(C)c1 (centres unmarked) [Compound A85]	4 (4=60-79%)	5 (5=80-100%)	5 (5=80-100%)	5 (5=80-100%)	5 (5=80-100%)	5 (5=80-100%)	5 (5=80-100%)	5 (5=80-100%)	5 (5=80-100%)	3 (3=40-59%)
CC#Cc1cc(C)c(C2=C(OC(=O)C3CCC3)CC3(CCN(C(=O)C4CCC4)CC3)CC2=O)c(C)c1 [Compound P3]	5 (5=80-100%)	5 (5=80-100%)	5 (5=80-100%)	5 (5=80-100%)	5 (5=80-100%)	5 (5=80-100%)	5 (5=80-100%)	5 (5=80-100%)	5 (5=80-100%)	5 (5=80-100%)
CC#Cc1cc(C)c(C2=C(OC(=O)OC)CC3(CCN(C(=O)NC4CC4)CC3)CC2=O)c(C)c1 [Compound P15]	5 (5=80-100%)	5 (5=80-100%)	5 (5=80-100%)	5 (5=80-100%)	5 (5=80-100%)	5 (5=80-100%)	5 (5=80-100%)	5 (5=80-100%)	5 (5=80-100%)	5 (5=80-100%)
CC#Cc1cc(C)c(C2C(=O)CC3(CCN(C(=O)c4ccncn4)CC3)CC2=O)c(C)c1 [Compound A18]	5 (5=80-100%)	5 (5=80-100%)	5 (5=80-100%)	5 (5=80-100%)	5 (5=80-100%)	5 (5=80-100%)	5 (5=80-100%)	5 (5=80-100%)	5 (5=80-100%)	5 (5=80-100%)
CC#Cc1cc(C)c(C2C(=O)CC3(CCN(S(=O)(=O)C4COC4)CC3)CC2=O)c(C)c1 [Compound A83]	5 (5=80-100%)	5 (5=80-100%)	5 (5=80-100%)	5 (5=80-100%)	5 (5=80-100%)	5 (5=80-100%)	5 (5=80-100%)	5 (5=80-100%)	5 (5=80-100%)	4 (4=60-79%)
CC#Cc1cc(C)c(C2=C(OC(=O)OC)CC3(CCN(C(=O)NC(C)=O)CC3)CC2=O)c(C)c1 [Compound P53]	5 (5=80-100%)	5 (5=80-100%)	5 (5=80-100%)	5 (5=80-100%)	5 (5=80-100%)	4 (4=60-79%)	4 (4=60-79%)	5 (5=80-100%)	5 (5=80-100%)	5 (5=80-100%)
CC#Cc1cc(C)c(C2C(=O)CC3(CCN(C(=O)Nc4ncccc4C)CC3)CC2=O)c(C)c1 [Compound A177]	5 (5=80-100%)	5 (5=80-100%)	4 (4=60-79%)	5 (5=80-100%)	5 (5=80-100%)	5 (5=80-100%)	2 (2=20-39%)	5 (5=80-100%)	5 (5=80-100%)	4 (4=60-79%)
CC#Cc1cc(C)c(C2C(=O)CC3(CCN(C(=O)CCc4ccccn4)CC3)CC2=O)c(C)c1 [Compound A184]	5 (5=80-100%)	5 (5=80-100%)	4 (4=60-79%)	5 (5=80-100%)	5 (5=80-100%)	5 (5=80-100%)	1 (1=0-19%)	4 (4=60-79%)	5 (5=80-100%)	2 (2=20-39%)
CC#Cc1cc(C)c(C2C(=O)CC3(CCN(C(=O)C4=CCCCO4)CC3)CC2=O)c(C)c1 [Compound A182]	5 (5=80-100%)	5 (5=80-100%)	5 (5=80-100%)	5 (5=80-100%)	4 (4=60-79%)	5 (5=80-100%)	5 (5=80-100%)	5 (5=80-100%)	5 (5=80-100%)	3 (3=40-59%)
CC#Cc1cc(C)c(C2C(=O)CC3(CCN([S+]([O-])C(F)F)CC3)CC2=O)c(C)c1 (centres unmarked) [Compound A81]	5 (5=80-100%)	5 (5=80-100%)	5 (5=80-100%)	5 (5=80-100%)	5 (5=80-100%)	5 (5=80-100%)	5 (5=80-100%)	5 (5=80-100%)	5 (5=80-100%)	5 (5=80-100%)
CC#Cc1cc(C)c(C2C(=O)CC3(CCN(C(=O)Cc4ccncc4)CC3)CC2=O)c(C)c1 [Compound A100]	5 (5=80-100%)	5 (5=80-100%)	4 (4=60-79%)	5 (5=80-100%)	5 (5=80-100%)	5 (5=80-100%)	3 (3=40-59%)	5 (5=80-100%)	5 (5=80-100%)	3 (3=40-59%)
CC#Cc1cc(C)c(C2C(=O)CC3(CCN(C(=O)c4cc(C(F)(F)F)ccn4)CC3)CC2=O)c(C)c1 [Compound A90]	5 (5=80-100%)	5 (5=80-100%)	5 (5=80-100%)	5 (5=80-100%)	5 (5=80-100%)	5 (5=80-100%)	5 (5=80-100%)	5 (5=80-100%)	5 (5=80-100%)	5 (5=80-100%)
